According to patent US6737383B1, “Herbicidal oxadiazolidines” (priority 1999, dated 2004):

Columns and labels:
blackgrass = assay: Test B pre/postemergence blackgrass; assay type: in vivo, Alopecurus myosuroides
How it was run: (§1)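 Test chemicals in a non-phytotoxic solvent mixture with surfactant were sprayed preemergence onto planted seeds and postemergence onto plants 2 to 18 cm tall (1- to 4-leaf stage). After twelve to sixteen days in a greenhouse, injury was visually rated against untreated controls from 0 (no effect) to 10 (complete control).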

cocklebur = assay: Test B pre/postemergence cocklebur; assay type: in vivo, Xanthium strumarium
How it was run: as §1

wild oat = assay: Test B pre/postemergence wild oat; assay type: in vivo, Avena fatua
How it was run: as §1

wheat = assay: Test B pre/postemergence wheat; assay type: in vivo, Triticum aestivum
How it was run: as §1

corn = assay: Test B pre/postemergence corn; assay type: in vivo, Zea mays
How it was run: as §1

rape = assay: Test B pre/postemergence rape; assay type: in vivo, Brassica napus
How it was run: as §1

crabgrass = assay: Test B pre/postemergence crabgrass; assay type: in vivo, Digitaria sanguinalis
How it was run: as §1

smallflower flatsedge = assay: Test B flood test smallflower flatsedge; assay type: in vivo, Cyperus difformis
How it was run: (§2)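 Each value is a visual injury score relative to controls, with 10 meaning complete control and 0 no effect. Evaluation took place twelve to sixteen days after the 2-leaf-stage plants were treated and kept in the greenhouse.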

duck salad = assay: Test B flood test duck salad; assay type: in vivo, Heteranthera limosa
How it was run: as §2

soybean = assay: Test B pre/postemergence soybean; assay type: in vivo, Glycine max
How it was run: as §1

giant foxtail = assay: Test B pre/postemergence giant foxtail; assay type: in vivo, Setaria faberii
How it was run: as §1

sugar beet = assay: Test B pre/postemergence sugar beet; assay type: in vivo, Beta vulgaris
How it was run: as §1

purple nutsedge = assay: Test B pre/postemergence purple nutsedge; assay type: in vivo, Cyperus rotundus
How it was run: as §1

morningglory = assay: Test B pre/postemergence morningglory; assay type: in vivo, Ipomoea hederacea
How it was run: as §1

velvetleaf = assay: Test B pre/postemergence velvetleaf; assay type: in vivo, Abutilon theophrasti
How it was run: as §1

surinam grass = assay: Test B pre/postemergence surinam grass; assay type: in vivo, Brachiaria decumbens
How it was run: as §1

[1] = Postemergence, Rate 1000 g/ha, scale 0 to 10 (0 no effect, 10 complete control)
[2] = Preemergence, Rate 62 g/ha, scale of 0 to 10 where 0 is no effect and 10 is complete control
[3] = Preemergence, Rate 125 g/ha, 0 is no effect, 10 is complete control
[4] = Preemergence, Rate 250 g/ha, scale 0 to 10, 0 is no effect, 10 is complete control
[5] = Preemergence, Rate 500 g/ha, scale 0 to 10 (0 no effect, 10 complete control)
[6] = Rate 62 g/ha, Postemergence, scale of 0 to 10 where 0 is no effect and 10 is complete control
[7] = Rate 125 g/ha, Postemergence, scale 0 to 10
[8] = Rate 500 g/ha, Postemergence, scale 0 to 10
[9] = Rate 1000 g/ha, Preemergence, scale 0 to 10 (0 no effect, 10 complete control)
[10] = Rate 62 g/ha, headed Pre-emergence (flood test species), scale 0 to 10 (0 no effect, 10 complete control)
[11] = Rate 125 g/ha, Pre-emergence, flood test species, scale 0 to 10 where 0 is no effect and 10 is complete control
[12] = Rate 250 g/ha, Pre-emergence, flood-test species, scale 0 to 10, 0 is no effect, 10 is complete control

CC(C)N(C(=O)n1oc(=O)n(C2CCCC(C(F)(F)F)C2)c1=O)c1ccc(F)cc1 (centres unmarked) [Compound 184]
Blackgrass plant response rating (blackgrass; [1]): 7
Blackgrass plant response rating (blackgrass; [2]): 0
Blackgrass plant response rating (0 to 10 scale) (blackgrass; [3]): 3
Blackgrass plant response rating (blackgrass; [4]): 5
Blackgrass plant response rating (blackgrass; [5]): 7
Blackgrass plant response rating (blackgrass; [6]): 0
Blackgrass plant response rating (blackgrass; [7]): 1
Plant response rating (0 to 10; 0 is no effect, 10 is complete control), Blackgrass (blackgrass; Rate 250 g/ha, Postemergence): 3
Blackgrass plant response rating (blackgrass; [8]): 4
Plant response rating, Blackgrass (blackgrass; [9]): 7
Cocklebur plant response rating (cocklebur; [1]): 2
Cocklebur plant response rating (cocklebur; [2]): 0
Cocklebur plant response rating (0 to 10 scale) (cocklebur; [3]): 0
Cocklebur plant response rating (cocklebur; [4]): 0
Cocklebur plant response rating (cocklebur; [5]): 2
Cocklebur plant response rating (cocklebur; [6]): 0
Cocklebur plant response rating (cocklebur; [7]): 0
Plant response rating (0 to 10; 0 is no effect, 10 is complete control), Cocklebur (cocklebur; Rate 250 g/ha, Postemergence): 0
Cocklebur plant response rating (cocklebur; [8]): 1
Plant response rating, Cocklebur (cocklebur; [9]): 3
Wild oats plant response rating (wild oat; [1]): 5
Wild oats plant response rating (wild oat; [2]): 0
Wild oats plant response rating (wild oat; [4]): 0
Wild oats plant response rating (wild oat; [5]): 3
Wild oats plant response rating (wild oat; [7]): 0
Plant response rating (0 to 10; 0 is no effect, 10 is complete control), Wild oats (wild oat; Rate 250 g/ha, Postemergence): 0
Wild oats plant response rating (wild oat; [8]): 2
Plant response rating, Wild oats (wild oat; [9]): 4
Wheat plant response rating (wheat; [1]): 3
Wheat plant response rating (wheat; [2]): 0
Wheat plant response rating (wheat; [4]): 0
Wheat plant response rating (wheat; [5]): 0
Wheat plant response rating (wheat; [7]): 2
Plant response rating (0 to 10; 0 is no effect, 10 is complete control), Wheat (wheat; Rate 250 g/ha, Postemergence): 2
Wheat plant response rating (wheat; [8]): 3
Plant response rating, Wheat (wheat; [9]): 0
Corn plant response rating (corn; [1]): 0
Corn plant response rating (corn; [2]): 0
Corn plant response rating (0 to 10 scale) (corn; [3]): 0
Corn plant response rating (corn; [4]): 0
Corn plant response rating (corn; [5]): 0
Corn plant response rating (corn; [6]): 0
Corn plant response rating (corn; [7]): 0
Plant response rating (0 to 10; 0 is no effect, 10 is complete control), Corn (corn; Rate 250 g/ha, Postemergence): 0
Corn plant response rating (corn; [8]): 0
Plant response rating, Corn (corn; [9]): 2
Rape plant response rating (rape; [1]): 3
Rape plant response rating (rape; [2]): 0
Rape plant response rating (0 to 10 scale) (rape; [3]): 0
Rape plant response rating (rape; [4]): 0
Rape plant response rating (rape; [5]): 0
Rape plant response rating (rape; [6]): 0
Rape plant response rating (rape; [7]): 2
Plant response rating (0 to 10; 0 is no effect, 10 is complete control), Rape (rape; Rate 250 g/ha, Postemergence): 3
Rape plant response rating (rape; [8]): 6
Plant response rating, Rape (rape; [9]): 0
Crabgrass plant response rating (crabgrass; [1]): 2
Crabgrass plant response rating (crabgrass; [2]): 0
Crabgrass plant response rating (0 to 10 scale) (crabgrass; [3]): 5
Crabgrass plant response rating (crabgrass; [4]): 7
Crabgrass plant response rating (crabgrass; [5]): 9
Crabgrass plant response rating (crabgrass; [6]): 0
Crabgrass plant response rating (crabgrass; [7]): 0
Plant response rating (0 to 10; 0 is no effect, 10 is complete control), Crabgrass (crabgrass; Rate 250 g/ha, Postemergence): 0
Crabgrass plant response rating (crabgrass; [8]): 2
Plant response rating, Crabgrass (crabgrass; [9]): 9
S. Flatsedge plant response rating (smallflower flatsedge; Pre-emergence, Rate 1000 g/ha, scale 0 to 10 (0 no effect, 10 complete control)): 0
S. Flatsedge plant response rating (smallflower flatsedge; [10]): 0
S. Flatsedge plant response rating (smallflower flatsedge; [11]): 0
S. Flatsedge plant response rating (smallflower flatsedge; [12]): 0
S. Flatsedge plant response rating (smallflower flatsedge; Rate 500 g/ha, Pre-emergence, flood test species, scale 0 to 10 (0 no effect, 10 complete control)): 0
Ducksalad plant response rating (duck salad; [10]): 0
Ducksalad plant response rating (duck salad; [11]): 0
Ducksalad plant response rating (duck salad; [12]): 0
Plant response rating, Ducksalad (duck salad; Rate 500 g/ha, headed Pre-emergence (flood test species), scale 0 to 10 (0 no effect, 10 complete control)): 0
Ducksalad plant response rating (duck salad; Rate 1000 g/ha, Pre-emergence (as headed), scale 0 to 10): 0
Soybean plant response rating (soybean; [1]): 4
Soybean plant response rating (soybean; [2]): 0
Soybean plant response rating (0 to 10 scale) (soybean; [3]): 0
Soybean plant response rating (soybean; [4]): 0
Soybean plant response rating (soybean; [5]): 0
Soybean plant response rating (soybean; [6]): 1
Soybean plant response rating (soybean; [7]): 1
Plant response rating (0 to 10; 0 is no effect, 10 is complete control), Soybean (soybean; Rate 250 g/ha, Postemergence): 3
Soybean plant response rating (soybean; [8]): 3
Plant response rating, Soybean (soybean; [9]): 0
Giant foxtail plant response rating (giant foxtail; [1]): 3
Giant foxtail plant response rating (giant foxtail; [2]): 0
Giant foxtail plant response rating (0 to 10 scale) (giant foxtail; [3]): 9
Giant foxtail plant response rating (giant foxtail; [4]): 10
Giant foxtail plant response rating (giant foxtail; [5]): 10
Giant foxtail plant response rating (giant foxtail; [6]): 0
Giant foxtail plant response rating (giant foxtail; [7]): 0
Plant response rating (0 to 10; 0 is no effect, 10 is complete control), Giant foxtail (giant foxtail; Rate 250 g/ha, Postemergence): 0
Giant foxtail plant response rating (giant foxtail; [8]): 2
Plant response rating, Giant foxtail (giant foxtail; [9]): 10
Sugarbeets plant response rating (sugar beet; [1]): 0
Sugarbeets plant response rating (sugar beet; [2]): 0
Sugarbeets plant response rating (0 to 10 scale) (sugar beet; [3]): 0
Sugarbeets plant response rating (sugar beet; [4]): 0
Sugarbeets plant response rating (sugar beet; [5]): 0
Sugarbeets plant response rating (sugar beet; [6]): 2
Sugarbeets plant response rating (sugar beet; [7]): 2
Plant response rating (0 to 10; 0 is no effect, 10 is complete control), Sugarbeets (sugar beet; Rate 250 g/ha, Postemergence): 5
Sugarbeets plant response rating (sugar beet; [8]): 6
Plant response rating, Sugarbeets (sugar beet; [9]): 2
Nutsedge plant response rating (purple nutsedge; [1]): 0
Nutsedge plant response rating (purple nutsedge; [2]): 0
Nutsedge plant response rating (0 to 10 scale) (purple nutsedge; [3]): 0
Nutsedge plant response rating (purple nutsedge; [4]): 0
Nutsedge plant response rating (purple nutsedge; [5]): 0
Nutsedge plant response rating (purple nutsedge; [6]): 0
Nutsedge plant response rating (purple nutsedge; [7]): 0
Plant response rating (0 to 10; 0 is no effect, 10 is complete control), Nutsedge (purple nutsedge; Rate 250 g/ha, Postemergence): 0
Nutsedge plant response rating (purple nutsedge; [8]): 0
Morningglory plant response rating (morningglory; [1]): 9
Morningglory plant response rating (morningglory; [2]): 0
Morningglory plant response rating (0 to 10 scale) (morningglory; [3]): 0
Morningglory plant response rating (morningglory; [4]): 0
Morningglory plant response rating (morningglory; [5]): 0
Morningglory plant response rating (morningglory; [6]): 0
Morningglory plant response rating (morningglory; [7]): 6
Plant response rating (0 to 10; 0 is no effect, 10 is complete control), Morningglory (morningglory; Rate 250 g/ha, Postemergence): 6
Morningglory plant response rating (morningglory; [8]): 7
Plant response rating, Morningglory (morningglory; [9]): 2
Velvetleaf plant response rating (velvetleaf; [1]): 2
Velvetleaf plant response rating (velvetleaf; [2]): 0
Velvetleaf plant response rating (velvetleaf; [4]): 2
Velvetleaf plant response rating (velvetleaf; [5]): 7
Velvetleaf plant response rating (velvetleaf; [7]): 1
Plant response rating (0 to 10; 0 is no effect, 10 is complete control), Velvetleaf (velvetleaf; Rate 250 g/ha, Postemergence): 1
Velvetleaf plant response rating (velvetleaf; [8]): 5
Plant response rating, Velvetleaf (velvetleaf; [9]): 3
B. signalgrass plant response rating (surinam grass; [1]): 3
B. signalgrass plant response rating (surinam grass; [2]): 5
B. signalgrass plant response rating (0 to 10 scale) (surinam grass; [3]): 5
B. signalgrass plant response rating (surinam grass; [4]): 8
B. signalgrass plant response rating (surinam grass; [5]): 8
B. signalgrass plant response rating (surinam grass; [6]): 0
B. signalgrass plant response rating (surinam grass; Rate 125 g/ha, Postemergence, scale 0 (no effect) to 10 (complete control)): 0
Plant response rating, B. signalgrass (surinam grass; Rate 250 g/ha, Postemergence, scale 0 to 10, 0 is no effect, 10 is complete control): 0
B. signalgrass plant response rating (surinam grass; Rate 500 g/ha, Postemergence, scale 0 to 10, 0 no effect, 10 complete control): 0
Plant response rating, B. signalgrass (surinam grass; [9]): 5
